Reference: patent US20090280069A1, “PROGUANIL TO TREAT SKIN/MUCOSAL DISEASES” (Tolmar, Inc., priority 2008, published 2009)
Where two headings read alike, the source gives them in different places.

Experiments:
Format in all cases: cell-based
[1] = test system: Trichomonas vaginalis ATCC 30001; experiment: viability over time assay, T. vaginalis; details: for viability at 10 µg/mL / viability at 20 µg/mL / viability at 40 µg/mL / viability at 80 µg/mL / viability at 160 µg/mL / viability at 320 µg/mL: Trichomonas vaginalis, ATCC30001
Method: Trichomonas vaginalis infections in females usually involves vaginal discharge and vulvovaginal irritation but is usually asymptomatic in males. A viability over time assay was used to test the effects of varying concentrations of proguanil on a culture of the protozoa Trichomonas vaginalis ATCC 30001. A suspension of T. vaginalis was prepared and inoculated into microtiter plate wells containing supplemented Trichomonas Medium and proguanil concentrations of 320, 160, 80, 40, 20, and 10 μg/ml. A growth control using pyrogen-free water plus supplemented Trichomonas medium was used in place of the drug because it has no antiprotozoal effect. DGME was the solvent used to dissolve the proguanil, accordingly, a small amount of 10% DGME was used as the solvent control in the medium. These inoculated broth solutions were then allowed to incubate for a period of 6 hours. Samples were taken at 1, 3, and 6 hours and observed using a phase contrast microscope. Multiple microscope fields were counted and the number of viable and nonviable T. vaginalis recorded. In the experiment, the effects of proguanil on the T. vaginalis were observed as loss of flagella movement, loss of undulating membrane movement, and loss of cell refractivity.

[2] = test system: Gardnerella vaginalis ATCC 14018; experiment: time kill assay, G. vaginalis
Method: A time kill assay was used to test the effects of varying concentrations of proguanil on a culture of Gardnerella vaginalis ATCC 14018. An inoculum of G. vaginalis was prepared and inoculated in vials containing Brain Heart Infusion/Hemoglobin broth containing proguanil concentrations of 160, 80, 16, 8, 1.6 μg/ml. A growth control using phosphate buffered saline A (PBSA) plus a Brain Heart Infusion/Hemoglobin broth was used in place of the drug because it has no antimicrobial effect. DGME was the solvent used to dissolve the proguanil, accordingly, 10% DGME in broth was used as the solvent control. These inoculated broth solutions were then allowed to incubate for a period of 72 hours. Samples were taken at 0, 4, 24, 48 and 72 hours and spiral plated so the CFU/ml could be calculated.

[3] = test system: Candida albicans ATCC 10231; experiment: time kill assay, C. albicans
Method: A time kill assay was used to test the effects of varying concentrations of proguanil on a culture of Candida albicans ATCC 10231. An inoculum of C. albicans was prepared and inoculated in vials containing Muller Hinton II broth and proguanil concentrations of 1280, 640, 480, 320, 160 μg/ml. A growth control using phosphate buffered saline A (PBSA) plus Mueller Hinton II broth was used in place of the drug because it has no antimicrobial effect. DGME was the solvent used to dissolve the proguanil. Accordingly, 10% DGME was used as the solvent control. These inoculated broth solutions were then allowed to incubate for a period of 72 hours. Samples were taken at 0, 4, 24, 48 and 72 hours and spiral plated so the CFU/ml could be calculated.

CC(C)NC(=N)NC(=N)Nc1ccc(Cl)cc1 [Proguanil, N-(4-Chlorophenyl)-N′-(1-methylethyl)imidodicarbonimidic diamide]
Nonviable ([1]; 10 ug/ml, 1 Hour): 24
Viable ([1]; 10 ug/ml, 1 Hour): 26
Nonviable ([1]; 10 ug/ml, 3 Hour): 25
Viable ([1]; 10 ug/ml, 3 Hour): 25
Nonviable ([1]; 10 ug/ml, 6 Hour): 25
Viable ([1]; 10 ug/ml, 6 Hour): 25
Nonviable ([1]; 20 ug/ml, 1 Hour): 19
Viable ([1]; 20 ug/ml, 1 Hour): 31
Nonviable ([1]; 20 ug/ml, 3 Hour): 28
Viable ([1]; 20 ug/ml, 3 Hour): 22
Nonviable ([1]; 20 ug/ml, 6 Hour): 29
Viable ([1]; 20 ug/ml, 6 Hour): 21
Nonviable ([1]; 40 ug/ml, 1 Hour): 22
Viable ([1]; 40 ug/ml, 1 Hour): 28
Nonviable ([1]; 40 ug/ml, 3 Hour): 25
Viable ([1]; 40 ug/ml, 3 Hour): 25
Nonviable ([1]; 40 ug/ml, 6 Hour): 27
Viable ([1]; 40 ug/ml, 6 Hour): 26
Nonviable ([1]; 80 ug/ml, 1 Hour): 28
Viable ([1]; 80 ug/ml, 1 Hour): 22
Nonviable ([1]; 80 ug/ml, 3 Hour): 32
Viable ([1]; 80 ug/ml, 3 Hour): 18
Nonviable ([1]; 80 ug/ml, 6 Hour): 34
Viable ([1]; 80 ug/ml, 6 Hour): 8
effect on T. vaginalis viability ([1]; 80 μg/ml, at 3 and 6 hours): next greatest effect
Nonviable ([1]; 160 ug/ml, 1 Hour): 30
Viable ([1]; 160 ug/ml, 1 Hour): 20
Nonviable ([1]; 160 ug/ml, 3 Hour): 27
Viable ([1]; 160 ug/ml, 3 Hour): 24
Nonviable ([1]; 160 ug/ml, 6 Hour): 43
Viable ([1]; 160 ug/ml, 6 Hour): 9
effect on T. vaginalis ([1]; 160 μg/ml, at 6 hours): strong inhibition and killing effect
Nonviable ([1]; 320 ug/ml, 1 Hour): 32
Viable ([1]; 320 ug/ml, 1 Hour): 18
Nonviable ([1]; 320 ug/ml, 3 Hour): 40
Viable ([1]; 320 ug/ml, 3 Hour): 13
Nonviable ([1]; 320 ug/ml, 6 Hour): 14
Viable ([1]; 320 ug/ml, 6 Hour): 0
effect on T. vaginalis ([1]; 320 μg/ml, at 1 hour): early inhibition and killing effect
surviving T. vaginalis ([1]; 320 μg/ml, at 6 hours): no surviving T. vaginalis could be observed
Relative Sensitivity (Compared to Other Strains Tested) ([1]; Trichomonas vaginalis (parasitic protozoan) ATCC 30001): Very Sensitive
Approximate Inhibitory Level ([1]; Trichomonas vaginalis (parasitic protozoan) ATCC 30001, level at which partial or total inhibition of growth is observed): 80 µg/mL
viability at 10 µg/mL ([1]; 10 ug/ml, 1 Hour, read-out: PerCent Viable): 52%
viability at 10 µg/mL ([1]; 10 ug/ml, 1 Hour, read-out: Percent Viable of Growth Control): 118%
viability at 10 µg/mL ([1]; 10 ug/ml, 3 Hour, read-out: PerCent Viable): 50%
viability at 10 µg/mL ([1]; 10 ug/ml, 3 Hour, read-out: Percent Viable of Growth Control): 96.2%
viability at 10 µg/mL ([1]; 10 ug/ml, 6 Hour, read-out: PerCent Viable): 50%
viability at 10 µg/mL ([1]; 10 ug/ml, 6 Hour, read-out: Percent Viable of Growth Control): 86.2%
viability at 20 µg/mL ([1]; 20 ug/ml, 1 Hour, read-out: PerCent Viable): 62%
viability at 20 µg/mL ([1]; 20 ug/ml, 1 Hour, read-out: Percent Viable of Growth Control): 140%
viability at 20 µg/mL ([1]; 20 ug/ml, 3 Hour, read-out: PerCent Viable): 44%
viability at 20 µg/mL ([1]; 20 ug/ml, 3 Hour, read-out: Percent Viable of Growth Control): 84.6%
viability at 20 µg/mL ([1]; 20 ug/ml, 6 Hour, read-out: PerCent Viable): 42%
viability at 20 µg/mL ([1]; 20 ug/ml, 6 Hour, read-out: Percent Viable of Growth Control): 72.4%
viability at 40 µg/mL ([1]; 40 ug/ml, 1 Hour, read-out: PerCent Viable): 56%
viability at 40 µg/mL ([1]; 40 ug/ml, 1 Hour, read-out: Percent Viable of Growth Control): 126%
viability at 40 µg/mL ([1]; 40 ug/ml, 3 Hour, read-out: PerCent Viable): 50%
viability at 40 µg/mL ([1]; 40 ug/ml, 3 Hour, read-out: Percent Viable of Growth Control): 96.2%
viability at 40 µg/mL ([1]; 40 ug/ml, 6 Hour, read-out: PerCent Viable): 49.1%
viability at 40 µg/mL ([1]; 40 ug/ml, 6 Hour, read-out: Percent Viable of Growth Control): 84.6%
viability at 80 µg/mL ([1]; 80 ug/ml, 1 Hour, read-out: PerCent Viable): 44%
viability at 80 µg/mL ([1]; 80 ug/ml, 1 Hour, read-out: Percent Viable of Growth Control): 99.4%
viability at 80 µg/mL ([1]; 80 ug/ml, 3 Hour, read-out: PerCent Viable): 36%
viability at 80 µg/mL ([1]; 80 ug/ml, 3 Hour, read-out: Percent Viable of Growth Control): 69.2%
viability at 80 µg/mL ([1]; 80 ug/ml, 6 Hour, read-out: PerCent Viable): 19%
viability at 80 µg/mL ([1]; 80 ug/ml, 6 Hour, read-out: Percent Viable of Growth Control): 32.8%
viability at 160 µg/mL ([1]; 160 ug/ml, 1 Hour, read-out: PerCent Viable): 40%
viability at 160 µg/mL ([1]; 160 ug/ml, 1 Hour, read-out: Percent Viable of Growth Control): 90.4%
viability at 160 µg/mL ([1]; 160 ug/ml, 3 Hour, read-out: PerCent Viable): 47.1%
viability at 160 µg/mL ([1]; 160 ug/ml, 3 Hour, read-out: Percent Viable of Growth Control): 90.5%
viability at 160 µg/mL ([1]; 160 ug/ml, 6 Hour, read-out: PerCent Viable): 17.3%
viability at 160 µg/mL ([1]; 160 ug/ml, 6 Hour, read-out: Percent Viable of Growth Control): 29.8%
viability at 320 µg/mL ([1]; 320 ug/ml, 1 Hour, read-out: PerCent Viable): 36%
viability at 320 µg/mL ([1]; 320 ug/ml, 1 Hour, read-out: Percent Viable of Growth Control): 81.3%
viability at 320 µg/mL ([1]; 320 ug/ml, 3 Hour, read-out: PerCent Viable): 24.5%
viability at 320 µg/mL ([1]; 320 ug/ml, 3 Hour, read-out: Percent Viable of Growth Control): 47.2%
viability at 320 µg/mL ([1]; 320 ug/ml, 6 Hour, read-out: PerCent Viable): 0%
viability at 320 µg/mL ([1]; 320 ug/ml, 6 Hour, read-out: Percent Viable of Growth Control): 0%
effect on the bacteria ([2]; 160 μg/ml and 80 μg/ml, 4 hours through 72 hours): killing effect
inhibition of growth ([2]; 16, 8, and 1.6 μg/ml): no or little inhibition of growth
CFU/ml ([2]; 160 and 80 μg/ml, T=24, 48 and 72 hours): 0 CFU/ml
Relative Sensitivity (Compared to Other Strains Tested) ([2]; Gardnerella vaginalis ATCC 14018): Very Sensitive
Approximate Inhibitory Level ([2]; Gardnerella vaginalis ATCC 14018, level at which partial or total inhibition of growth is observed): 80 µg/mL
CFU/ml ([3]; 160 μg/ml, static from 24 to 72 hours): 80 CFU/ml
effect on C. albicans ([3]; 320 μg/ml, 24 hour time point and later): completely killed
CFU counts ([3]; 1280 μg/ml, all time points 0-72 hours): 0 CFU
effect on the yeast ([3]; 640 and 480 μg/ml, 4-72 hour time points): killing all of the yeast
Relative Sensitivity (Compared to Other Strains Tested) ([3]; Candida albicans): Moderately
Approximate Inhibitory Level ([3]; Candida albicans, level at which partial or total inhibition of growth is observed): 320 µg/mL
